Measured values reported in article PMC12080252, “Daphnia magna as an Alternative Model for (Simultaneous) Bioaccumulation and Chronic Toxicity Assessment—Controlled Exposure Study Indicates High Hazard of Heterocyclic PAHs” (Environmental Science & Technology, 2025).
Values joined by “and” are separate entries in the source; they are usually repeats but may differ in a detail not shown here. Identical values can stand only once.

Columns and labels:
[1] = tested on: Daphnia magna; test: Chronic reproduction toxicity test (OECD 211) with passive dosing; type: in vivo; conditions: for Total #dead offspring per mother (per vessel) / Total #offspring per mother (per vessel) / % inhibition (per vessel): individual vessels; for EC10: 21-day reproduction inhibition; for wet weight of parent daphnids, change relative to control: end of 21-d exposure; for % inhibition, avr. / % inhibition (per vessel): reproduction vs controls
How it was run: (§1)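 D. magna juveniles (<24 h) exposed individually 21 days by passive dosing from PDMS disks, static, 20 °C, 16:8 h light/dark, medium renewed three times weekly, fed daily; water concentrations measured initially and before renewal. Offspring per mother versus controls gave percent inhibition; EC10/EC20/EC50 from four-parameter logistic fit of log10 concentrations (Top 100, Bottom 0).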

[2] = as above; type: in vivo, Daphnia magna; conditions: Daphnia magna, in vivo, other: waterborne exposure by passive dosing from PDMS disks, 21-day test, read-out: % offspring mortality of total offspring
How it was run: as §1

[3] = tested on: D. magna; conditions: acute test, at water solubility; cited from earlier work

c1ccc2c(c1)ccc1sc3ccccc3c12 [BNT, benzo[b]naphtho[1,2-d]thiophene]
#average live offspring ([1]; 0.07 µg/L, 21 days): 67
%offspring mortality ([1]; 0.07 µg/L, 21 days): 1.76%
#total live offspring ([1]; 0.07 µg/L, 21 days, all vessels without outlier): 334
Total #dead offspring per mother (per vessel) ([1]; 0.07 µg/L, 21 days): 0 and 2
#average live offspring ([1]; 0.25 µg/L, 21 days): 67
%offspring mortality ([1]; 0.25 µg/L, 21 days): 11.09%
#total live offspring ([1]; 0.25 µg/L, 21 days, all vessels): 401
Total #dead offspring per mother (per vessel) ([1]; 0.25 µg/L, 21 days): 8 and 14 and 9 and 6 and 5
#average live offspring ([1]; 0.38 µg/L, 21 days): 62
%offspring mortality ([1]; 0.38 µg/L, 21 days): 11.71%
#total live offspring ([1]; 0.38 µg/L, 21 days, all vessels without vessel 2 (X)): 309
Total #dead offspring per mother (per vessel) ([1]; 0.38 µg/L, 21 days): 9 and 16 and 10 and 5 and 1
#average live offspring ([1]; 0.81 µg/L, 21 days): 52
%offspring mortality ([1]; 0.81 µg/L, 21 days): 14.75%
#total live offspring ([1]; 0.81 µg/L, 21 days, all vessels): 312
Total #dead offspring per mother (per vessel) ([1]; 0.81 µg/L, 21 days): 10 and 9 and 3 and 24 and 5
EC10 ([1]; 97.5-2.5% confidence interval in brackets): 0.33 (0.12-0.73) μg L^-1
EC10 ([1]; confidence interval in brackets): 1.40 (0.49-3.10) nmol L^-1
growth of parent D. magna (wet weight) ([1]; 21-day test, p-value <0.05): significantly inhibited D. magna growth
LOEC (lowest observed effect concentration, reproduction inhibition) ([1]; 21 days, p-value <0.05 vs controls): 0.8 μg L^–1
Total #offspring per mother (per vessel) ([1]; BNT avr. medium concentration 0.25 µg/L (methanol dosing 0.063 g/L), 21 days): 81 and 73 and 58 and 64 and 61
Total #offspring per mother (per vessel) ([1]; BNT avr. medium concentration 0.38 µg/L (methanol dosing 0.125 g/L), 21 days): 66 and 55 and 82 and 54 and 52
Total #offspring per mother (per vessel) ([1]; BNT avr. medium concentration 0.81 µg/L (methanol dosing 0.25 g/L), 21 days): 40 and 59 and 60 and 34 and 57 and 62
EA50 (effective chemical activity) ([1]; EC50/subcooled liquid solubility, eq 1): 0.026 unitless
Classification according to REACH Annex XIII ([1]; chronic EC10 < 10 μg L^–1): toxic to aquatic life
CTLBB (critical target lipid body burden) ([1]; derived from chronic EC10 using eq 3): 0.8 μmol g^-1 octanol
wet weight of parent daphnids, change relative to control ([1]; 0.07 µg/L (Fig. S9)): -11%
wet weight of parent daphnids, change relative to control ([1]; 0.25 µg/L (Fig. S9)): -19%
wet weight of parent daphnids, change relative to control ([1]; 0.38 µg/L (Fig. S9)): -17%
wet weight of parent daphnids, change relative to control ([1]; 0.81 µg/L (Fig. S9)): -3%
wet weight of parent daphnids, change relative to control ([1]; 1.94 µg/L (Fig. S9)): +13%
wet weight of parent daphnids, change relative to control ([1]; 4.63 µg/L (Fig. S9)): -24%
% inhibition, avr. ([1]; 0.07 µg/L, 21 days): 1.3%
% inhibition (per vessel) ([1]; 0.07 µg/L, 21 days): -3.4% and -4.9% and -1.9% and 15.8% and 1.0%
% inhibition, avr. ([1]; 0.25 µg/L, 21 days): 1.3%
% inhibition (per vessel) ([1]; 0.25 µg/L, 21 days): -19.6% and -7.8% and 14.3% and 5.5% and 9.9%
% inhibition, avr. ([1]; 0.38 µg/L, 21 days): 8.7%
% inhibition (per vessel) ([1]; 0.38 µg/L, 21 days): 2.5% and 18.8% and -21.1% and 20.2% and 23.2%
% inhibition, avr. ([1]; 0.81 µg/L, 21 days): 23.2%
% inhibition (per vessel) ([1]; 0.81 µg/L, 21 days): 40.9% and 12.9% and 11.4% and 49.8% and 15.8% and 8.4%
mortality at 21 days, 0.07 µg/L ([2]; 0.07 µg/L (Fig. S8)): 1.8%
mortality at 21 days, 0.25 µg/L ([2]; 0.25 µg/L (Fig. S8)): 11.1%
mortality at 21 days, 0.38 µg/L ([2]; 0.38 µg/L (Fig. S8)): 11.7%
mortality at 21 days, 0.81 µg/L ([2]; 0.81 µg/L (Fig. S8)): 14.8%
mortality at 21 days, 1.94 µg/L ([2]; 1.94 µg/L (Fig. S8)): 14.2%
mortality at 21 days, 4.63 µg/L ([2]; 4.63 µg/L (Fig. S8)): 20.8%
mortality at 21 days, 12 µg/L ([2]; 12.00 µg/L (Fig. S8)): 28%
effect on D. magna immobilization [3]: 35%
